Results from patent US20260108612A1, “BETA-PEPTIDES AND BETA-PEPTIDE HYDROGELS” (MONASH UNIVERSITY, priority 2022, published 2026).
“Also recorded” adds a separate entry of the source.

How the values were obtained:
Format in all cases: physicochemical
[1] = Atomic force microscopy of peptide self-assembly; conditions: ultrapure water, 0.25 mg/mL
Description: To confirm the self-assembly of β-tetrapeptides 1 and 2 into fibres, atomic force microscopy (AFM) was performed on a Nanoscope IV AFM with a Multimode head using a vertical engage ‘E’ scanner. A 2 μL peptide solution in MilliQ (ultrapure) water (0.25 mg/mL) was prepared and placed on a clean mica surface. A low concentration of peptide was necessary to avoid contamination the probe. The peptide solution was air-dried for 30 minutes, followed by further drying with a stream of N2 gas. Images were obtained under tapping mode with NSC-15 ‘B’ silicon cantilevers (Micromasch, Tallinn, Estonia) with a nominal force constant of 40 and 20 N/m for 1 and 2, respectively. Topographic, phase and amplitude images at a resolution of 512×512 were simultaneously obtained using scan frequency of 1 Hz with typical scan sizes of 5 μm×5 μm and 2 μm×2 μm. Images were processed with a sequence of plane fitting and offset flattening using Gwyddion 2.29 (www.gwyddion.net) software.

[2] = Inversion test for hydrogel formation (gelation); conditions: for Gelation result: 37° C., 24 hours
Description: An inversion test was used to qualitatively assess different solvent conditions and concentrations of 1 and 2 for forming a non-flowing, self-supporting stable hydrogel (Liebman, T., et al., 2007). Peptide solubility was tested using a variety of solvents and solvent mixtures: MilliQ (ultrapure) water, phosphate buffered saline (PBS) 1× (Sigma P3813), PBS 10× (Sigma P3813) and Dulbecco's Modified Eagle's Medium/Nutrient Mixture F-12 Ham (DMEM/F12) (Sigma D8437). 100 μL or 50 μL of solvent was added to 0.5 mg of peptide in a glass vial to achieve a final concentration of 5 or 10 mg/mL, respectively. The solution was vortexed up to 30 mins until all the peptide particles had dissolved and left to self-assemble and gelate for 30 minutes at room temperature.

[3] = Rheological characterisation (parallel plate rheometer); conditions: strain sweep 1% to 100% over 20 minutes, 1 Hz, 37° C.
Description: Rheological measurements were undertaken using an Anton Paar Physical parallel plate rheometer at 37° C. Hydrogels were prepared in 75% MilliQ Water/25% DMEM/F12 using 10 mg/mL of the following: 100% 1, 50% 1/50% 2, and 100% 2. The hydrogel solutions were made just prior to experiment and vortexed thoroughly, and then immediately pipetted onto the base. A top plate with diameter 8 mm was lowered to form a measurement gap size of 0.1 mm. In an oscillatory time sweep test, the storage (elastic, G′) and loss (viscous, G″) moduli were measured with strain applied at 1% at a constant frequency of 1 Hz. For the cyclic step-strain test, after 20 minutes, the strain was increased to 100% for 1 minute to mechanically shear the hydrogel before it is returned to 1% strain. This was repeated an additional 2 times. The plateau modulus was calculated as the average of the storage modulus at the end of each 20-minute gelation cycle. A strain sweep was conducted from 1% to 100% strain over the 20 minutes with a constant frequency of 1 Hz. The gel-to-sol transition point was determined at the strain at which the storage and loss modulus equalled in value. A dynamic frequency sweep was performed from 0.01 to 10 Hz with a constant strain of 1%. All measurements were obtained in triplicate and all figures are presented as the average of those triplicates.

[4] = 50% MilliQ Water/50% DMEM/F12, 5 mg/mL
[5] = 50% MilliQ Water/50% DMEM/F12, 10 mg/mL
[6] = 75% MilliQ Water/25% DMEM/F12, 5 mg/mL
[7] = 75% MilliQ Water/25% DMEM/F12, 10 mg/mL

| Compound | entanglement of the fibres (AFM) [1] | spontaneous self-assembly into fibres (AFM) [1] | time within which the hydrogel reverts back to a solution ([2]; 1:1 MilliQ Water and DMEM/F12, both 5 and 10 mg/mL) [h] | duration of stable hydrogel under physiological conditions ([2]; 3:1 MilliQ Water:DMEM/F12, 10 mg/mL) | Gelation result [2, 4] | Gelation result [2, 5] | Gelation result [2, 6] | Gelation result [2, 7] | Gelation result ([2]; DMEM/F12, 5 mg/mL) | Gelation result ([2]; DMEM/F12, 10 mg/mL) | Gelation result ([2]; MilliQ water, 5 mg/mL) | Gelation result ([2]; MilliQ water, 10 mg/mL) | peptide dissolution ([2]; MilliQ water, both 5 and 10 mg/mL) | Gelation result ([2]; PBS 1×, 5 mg/mL) | Gelation result ([2]; PBS 1×, 10 mg/mL) | Gelation result ([2]; PBS 10×, 5 mg/mL) | Gelation result ([2]; PBS 10×, 10 mg/mL) | peptide dissolution ([2]; 5 mg/mL, MilliQ water, PBS 1×, PBS 10×, DMEM and 50% MQ Water/50% DMEM/F12) | Strain for gel-to-sol Transition [3] [%] |
| --- | --- | --- | --- | --- | --- | --- | --- | --- | --- | --- | --- | --- | --- | --- | --- | --- | --- | --- | --- |
| CCCCCCCCCCCCCC(=O)NCC(CC(=O)NC(C)CC(=O)NC(CCCCN)CC(=O)NC1COC(=O)C1)NC(C)=O (stereo not drawn) [compound 1, Ac-Az(Myr)AKS*-Lac] | propensity for the nanofibres to aggregate together and form bundles | distinct nanofibres | ≤ 24 | over several weeks | Unstable gel | Unstable gel | Unstable gel | long-lasting stable hydrogel; also recorded: Stable gel | Liquid (liquid (has the same flow as water)) | Poor dissolution | Liquid (liquid (has the same flow as water)) | more viscous solution; also recorded: Viscous liquid | readily dissolved | Viscous liquid | prevented the peptide from being completely dissolved; also recorded: Poor dissolution | Viscous liquid | prevented the peptide from being completely dissolved; also recorded: Poor dissolution |  |  |
| CCCCCCCCCCCCCC(=O)NCC(CC(=O)NC(C)CC(=O)NC(CC(=O)NC1COC(=O)C1)C(=O)NCCNC(=O)C(CC(=O)O)NC(=O)CNC(=O)C(CCCNC(=N)N)NC(C)=O)NC(C)=O (stereo not drawn) [compound 2, Ac-Az(Myr)AX(RGD)S*-Lac] | more wide-spread and mesh-like | distinct nanofibres |  |  | liquid solution; also recorded: Liquid (liquid (has the same flow as water)) | Unstable gel | Unstable gel | Stable gel | liquid solution; also recorded: Liquid (liquid (has the same flow as water)) | Unstable gel | liquid solution; also recorded: Liquid (liquid (has the same flow as water)) | Liquid (liquid (has the same flow as water)) |  | liquid solution; also recorded: Liquid (liquid (has the same flow as water)) | Viscous liquid | liquid solution; also recorded: Liquid (liquid (has the same flow as water)) | Poor dissolution | readily dissolved | 31 |
